Measurements taken from PubChem BioAssay (NCI).
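Abbreviation: GI50, concentration required for 50% inhibition of growth. Definition used: TGI = concentration required for complete inhibition of growth.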

How the values were obtained:
Assay in all cases: inhibition of tumour cell growth, NCI panel, 384-well format
786-0 renal = test system: 786-0 renal
CAKI-1 renal = test system: CAKI-1 renal
CCRF-CEM leukemia = test system: CCRF-CEM leukemia
HCT-15 colon = test system: HCT-15 colon
HS 578T breast = test system: HS 578T breast
IGROV1 ovarian = test system: IGROV1 ovarian
K-562 leukemia = test system: K-562 leukemia
MDA-MB-468 breast = test system: MDA-MB-468 breast
MOLT-4 leukemia = test system: MOLT-4 leukemia
SF-295 CNS = test system: SF-295 CNS
T-47D breast = test system: T-47D breast
UACC-257 melanoma = test system: UACC-257 melanoma
UO-31 renal = test system: UO-31 renal

Row | Structure (SMILES) | GI50 ([…]-0 renal) [µM] | TGI (786-0 renal) [µM] | GI50 (CAKI-1 renal) [µM] | TGI (CAKI-1 renal) [µM] | GI50 (CCRF-CEM leukemia) [µM] | TGI (CCRF-CEM leukemia) [µM] | GI50 (HCT-15 colon) [µM] | TGI (HCT-15 colon) [µM] | GI50 (HS 578T breast) [µM] | TGI (HS 578T breast) [µM] | GI50 (IGROV1 ovarian) [µM] | TGI (IGROV1 ovarian) [µM] | GI50 (K-562 leukemia) [µM] | TGI (K-562 leukemia) [µM] | GI50 (MDA-MB-468 breast) [µM] | TGI (MDA-MB-468 breast) [µM] | GI50 (MOLT-4 leukemia) [µM] | TGI (MOLT-4 leukemia) [µM] | GI50 (SF-295 CNS) [µM] | TGI (SF-295 CNS) [µM] | also measured
1 | CC(=O)N1CC(F)(F)c2c(Sc3ncc(N4CCC5(CC4)COC[C@H]5N)nc3N)cccc21 | 10.7 | 23.5 | 2.74 | 21.1 | 15.3 | 28.6 | 16.9 | 31.8 | 13.9 | 29.8 | 6.38 | 24.5 | 0.774 | 13.9 | 1.52 | 8.19 | 14.1 | 27.2 | 15.5 | 31.2 | GI50 (T-47D breast): 11.5 µM; TGI (T-47D breast): 26.3 µM; GI50 (UACC-257 melanoma): 14.4 µM; TGI (UACC-257 melanoma): 27.6 µM; GI50 (UO-31 renal): 6.39 µM; TGI (UO-31 renal): 20.3 µM
2 | Cc1nc(NC(=O)N2CCC[C@H]2C(N)=O)sc1-c1ccnc(C(C)(C)C(F)(F)F)c1 | 17.4 | 54.8 | 7.1 | 26.9 | 3.51 | 15.6 | 2.74 | 27.8 | 3.7 | 18.4 | 0.118 | 1.34 | 15.6 | 35.1 | 1.26 | 7.64 | 0.857 | 4.24 | 9.16 | 33.5 | GI50 (T-47D breast): 0.0839 µM; TGI (T-47D breast): 0.592 µM; GI50 (UACC-257 melanoma): 23 µM; TGI (UACC-257 melanoma): 70.3 µM; GI50 (UO-31 renal): 8.46 µM; TGI (UO-31 renal): 58.5 µM
